Assay results reported in patent publication US11674962B2, “Therapeutic and diagnostic methods for cancer” (Genentech, Inc., priority 2017, dated 2023).

Columns and labels:
[1] = system: locally advanced or metastatic non-small cell lung cancer (NSCLC); experiment: POPLAR phase II clinical trial (NCT01903993): atezolizumab vs docetaxel, outcomes by bTMB score; format: in vivo, human; conditions: bTMB≥16, per treatment arm
Protocol: (§1) A blood-based assay was used to evaluate the association between clinical response to treatment with atezolizumab (MPDL3280A) and blood tumor mutational burden (bTMB) score in patients with non-small cell lung cancer (NSCLC) enrolled in two clinical trials, a phase II clinical trial, POPLAR (Clinical Trial ID No.: NCT01903993), and a phase III clinical trial, OAK (Clinical Trial ID No.: NCT02008227), in which atezolizumab was administered as a monotherapy.
(§2) Pre-treatment blood samples from patients with NSCLC who were enrolled in the POPLAR and/or the OAK studies, in which atezolizumab was administered as a monotherapy, were evaluated for bTMB score and/or maximum somatic allele frequency (MSAF).
The POPLAR (Clinical Trial ID No.: NCT01903993) patient population evaluated for bTMB score consisted of 273 patients. Patients were eligible for enrollment in the POPLAR study if they had locally advanced or metastatic (e.g., stage IIIB, stage IV, or recurrent) non-small cell lung cancer (NSCLC); disease progression during or following treatment with a prior platinum-containing regimen for locally advanced, unresectable/inoperable, or metastatic NSCLC, or disease recurrence within 6 months of treatment with a platinum-based adjuvant/neoadjuvant regimen; measurable disease, as defined by RECIST v1.1; and an Eastern Cooperative Oncology Group (ECOG) performance status of 0 or 1. Participants were randomized to receive either atezolizumab at a dose of 1200 mg intravenously every three weeks or docetaxel 75 mg per meter square (mg/m^2) intravenously every three weeks. Treatment with atezolizumab could be continued as long as participants were experiencing clinical benefit, i.e., in the absence of unacceptable toxicity or symptomatic deterioration attributed to disease progression.
(§3) Analysis of bTMB was performed retrospectively. Progression-free survival (PFS) was defined as the time between date of randomization and date of first documented disease progression as assessed by the investigator using RECIST v.1.1 or death from any cause, whichever occurred first. Overall survival (OS) was defined as the time between the date of randomization until death due to any cause. Treatment arms were compared for OS and PFS individually using a univariate Cox regression model without stratification in the biomarker evaluable-population (BEP) and their subgroups or using a stratified (by randomization stratification factors) Cox model in the ITT population. No multiplicity correction was applied to p-values or confidence intervals (CI). Kaplan-Meier methodology was used to estimate median OS and PFS and construct survival curves.
In the POPLAR ITT population (N=287), 273 samples were available for analysis. Of these, 6 were removed for sample contamination >1%; 9 were removed for median exon coverage <800×; and 47 were removed for low MSAF<1%.
The POPLAR BEP (N=211) includes 15 patients with EGFR mutation or ALK rearrangement, and 196 without known alterations.
(§4) To identify somatic mutations and calculate a bTMB score, whole blood samples obtained from each patient (collected in EDTA or Streck tubes) were processed through a series of spins to isolate plasma, from which cell free DNA (cfDNA) was extracted for sequencing analysis. Specifically, at least 20 ng purified cfDNA was used for library construction. Next-generation sequencing libraries using fragment barcodes and hybrid capture were constructed to analyze and sequence a pre-determined set of 394 genes that covered approximately 1.125 Mb of the exome. Specifically, purified libraries were hybrid captured using a 394-gene bait set and then further purified, pooled and loaded on an ILLUMINA® HISEQ® 4000 sequencing system. Sequenced libraries were aligned and sorted. […]

[2] = system: locally advanced or metastatic non-small cell lung cancer (NSCLC); experiment: OAK phase III clinical trial (NCT02008227): atezolizumab vs docetaxel, outcomes by bTMB score and PD-L1 IHC; format: in vivo, human; conditions: OAK
Protocol: as §1, §2
The OAK (Clinical Trial ID No.: NCT02008227) patient population evaluated for bTMB score consisted of 583 patients. Patients were eligible for enrollment in the OAK study if they had locally advanced or metastatic (e.g., stage IIIB, stage IV, or recurrent) NSCLC; disease progression during or following treatment with a prior platinum-containing regimen for locally advanced, unresectable/inoperable, or metastatic NSCLC, or disease recurrence within 6 months of treatment with a platinum-based adjuvant/neoadjuvant regimen; measurable disease, as defined by RECIST v1.1; and an ECOG performance status of 0 or 1. Participants were randomized to receive either atezolizumab at a dose of 1200 mg intravenously every three weeks or docetaxel 75 mg per square meter (mg/m^2) intravenously every three weeks. Treatment with atezolizumab could be continued as long as participants were experiencing clinical benefit, i.e., in the absence of unacceptable toxicity or symptomatic deterioration attributed to disease progression.
as §3
In the OAK ITT population (N=850), 797 samples were available for analysis. Of these samples, 13 were removed for sample contamination >1%; 42 were removed for median exon coverage <800×; and 100 were removed for low MSAF<1%.
The OAK BEP (N=642) included 59 patients with EGFR mutation or ALK rearrangement, and 583 without known alterations.
as §4, with “sorted. In order to accurately call variants at low allele frequencies and minimize artifacts from sequencing, PCR, or DNA damage-related errors, sequenced libraries were processed by a cfDNA computational pipeline that corrected errors via the use of fragment barcodes.” for “sorted.”

## CC(=O)O[C@@]12CO[C@@H]1C[C@H](O)[C@@]1(C)C(=O)[C@H](O)C3=C(C)[C@@H](OC(=O)[C@H](O)[C@@H](NC(=O)OC(C)(C)C)c4ccccc4)C[C@@](O)([C@@H](OC(=O)c4ccccc4)[C@H]21)C3(C)C [docetaxel]
[1]
  median OS: 7.4 months
  median PFS: 2.9 months
[2]; bTMB≥16, per treatment arm
  median OS: 6.8 months
[2]; bTMB≥16 patients, per treatment arm
  best overall response rate: 10%
